Source: patent publication US20260234125A1, “CYCLIC AMINE DERIVATIVE, AND COMPOSITION AND USE THEREOF” (SHANGHAI JINGXIN BIOMEDICAL CO., LTD., priority 2023, published 2026)

Tests used:
[1] = Bioavailability determination in cynomolgus monkeys; assay type: in vivo; settings: cynomolgus monkey, plasma, 1 mg/kg intravenous and 7.5 mg/kg oral gavage, read-out: bioavailability F
Experimental: • 1. Experimental purpose: The purpose of this test is to test the bioavailability of the compound in cynomolgus monkeys • 2. Experimental methods: The cynomolgus monkeys were housed with a standard light cycle (12 hours light/12 hours dark), at a room temperature of 18-26° C. and a relative humidity of 40-70%, with free access to water and normal diet. Five days prior to the study, the cynomolgus monkeys were randomly assigned to an intravenous administration group and an oral administration group (n=2/group) on their body weight for the study. The administration volume was calculated according to the body weight of the animals on the day of administration, and the administration volume was 2 mL/kg, the single intravenous administration was performed at a dose of 1 mg/kg, and the solvent was 5% DMSO, 5% Solutol, and 90% Saline. Blood was collected from the forelimb vein or other suitable veins at 0.083 h, 0.25 h, 0.5 h, 1 h, 2 h, 4 h, 6 h, 8 h, 12 h, 24 h, 48 h and 72 h after administration. The administration volume was calculated according to the weight of the animals on the day of administration, and the administration volume was 5 mL/kg, the single oral gavage administration was performed at a dose of 7.5 mg/kg, and the solvent was 1% HEC and 0.25% Tween 80 in Water. […]

[2] = biological target: T1, human Apo(a) protein (Homo sapiens, UniProt P08519); test: BLI affinity of compounds to Apo(a); assay type: binding; settings: biotinylated apolipoprotein(a) on SA sensor, compound 100 nM
T1 construct: biotin (biotinylated)
Experimental: • 1. Experimental purpose: The purpose of this test is to test the affinity of the compounds of the present disclosure to Apo(a) • 2. Experimental instruments and reagents: • Molecular interaction analyzer (ForteBio Octet red 96e), • SA sensor (ForteBio), • 96-well plates were purchased from Greine, • 3. Experimental methods:
Prepared two 96-well plates, one as a sample plate and another as a pre-wett plate, curing buffer was added to a 200 μL well of the pre-wet plate, and the SA sensor was pre-wetted for at least ten minutes. All reagents and samples were added to another black sample plate, after the sample addition was completed, the sensor plate and the sample plate were placed into the ForteBio Octet red 96e instrument. The program was set up in sequence for detection. The experimental temperature was set to 30° C. and the acquisition frequency was set at 5.0 Hz. The biosensor was run in 1×PBS, pH7.4, 0.02% Tween-20, 0.1% BSA in the first column for 60 seconds, which was the baseline step. Biotinylated apolipoprotein(a) was diluted to 40 μg/ml with 1×PBS, pH7.4, 0.02% Tween-20, 0.1% BSA, and added to the second column, where it was run for a period of time until the amount of curing on the sensor reaches 2.0 nm. The biosensor was run in 1×PBS, pH7.4, 0.02% Tween-20, 0.1% BSA in the third column for 60 seconds, which was the baseline step. The compound was diluted to 100 nM with 1×PBS, pH7.4, 0.02% Tween-20, 0.1% BSA, and added to the fourth column, where the sensor was run for 60 seconds. The sensor was run in 1×PBS, pH7.4, 0.02% Tween-20, 0.1% BSA in the third column for 120 seconds, during this process, the compound dissociated from the sensor. The affinity constant KD reflects the size of the interaction binding ability. When the concentration of the analyte is at KD, the equilibrium signal Req is half of Rmax.

T1 sequence (P08519 20-2040): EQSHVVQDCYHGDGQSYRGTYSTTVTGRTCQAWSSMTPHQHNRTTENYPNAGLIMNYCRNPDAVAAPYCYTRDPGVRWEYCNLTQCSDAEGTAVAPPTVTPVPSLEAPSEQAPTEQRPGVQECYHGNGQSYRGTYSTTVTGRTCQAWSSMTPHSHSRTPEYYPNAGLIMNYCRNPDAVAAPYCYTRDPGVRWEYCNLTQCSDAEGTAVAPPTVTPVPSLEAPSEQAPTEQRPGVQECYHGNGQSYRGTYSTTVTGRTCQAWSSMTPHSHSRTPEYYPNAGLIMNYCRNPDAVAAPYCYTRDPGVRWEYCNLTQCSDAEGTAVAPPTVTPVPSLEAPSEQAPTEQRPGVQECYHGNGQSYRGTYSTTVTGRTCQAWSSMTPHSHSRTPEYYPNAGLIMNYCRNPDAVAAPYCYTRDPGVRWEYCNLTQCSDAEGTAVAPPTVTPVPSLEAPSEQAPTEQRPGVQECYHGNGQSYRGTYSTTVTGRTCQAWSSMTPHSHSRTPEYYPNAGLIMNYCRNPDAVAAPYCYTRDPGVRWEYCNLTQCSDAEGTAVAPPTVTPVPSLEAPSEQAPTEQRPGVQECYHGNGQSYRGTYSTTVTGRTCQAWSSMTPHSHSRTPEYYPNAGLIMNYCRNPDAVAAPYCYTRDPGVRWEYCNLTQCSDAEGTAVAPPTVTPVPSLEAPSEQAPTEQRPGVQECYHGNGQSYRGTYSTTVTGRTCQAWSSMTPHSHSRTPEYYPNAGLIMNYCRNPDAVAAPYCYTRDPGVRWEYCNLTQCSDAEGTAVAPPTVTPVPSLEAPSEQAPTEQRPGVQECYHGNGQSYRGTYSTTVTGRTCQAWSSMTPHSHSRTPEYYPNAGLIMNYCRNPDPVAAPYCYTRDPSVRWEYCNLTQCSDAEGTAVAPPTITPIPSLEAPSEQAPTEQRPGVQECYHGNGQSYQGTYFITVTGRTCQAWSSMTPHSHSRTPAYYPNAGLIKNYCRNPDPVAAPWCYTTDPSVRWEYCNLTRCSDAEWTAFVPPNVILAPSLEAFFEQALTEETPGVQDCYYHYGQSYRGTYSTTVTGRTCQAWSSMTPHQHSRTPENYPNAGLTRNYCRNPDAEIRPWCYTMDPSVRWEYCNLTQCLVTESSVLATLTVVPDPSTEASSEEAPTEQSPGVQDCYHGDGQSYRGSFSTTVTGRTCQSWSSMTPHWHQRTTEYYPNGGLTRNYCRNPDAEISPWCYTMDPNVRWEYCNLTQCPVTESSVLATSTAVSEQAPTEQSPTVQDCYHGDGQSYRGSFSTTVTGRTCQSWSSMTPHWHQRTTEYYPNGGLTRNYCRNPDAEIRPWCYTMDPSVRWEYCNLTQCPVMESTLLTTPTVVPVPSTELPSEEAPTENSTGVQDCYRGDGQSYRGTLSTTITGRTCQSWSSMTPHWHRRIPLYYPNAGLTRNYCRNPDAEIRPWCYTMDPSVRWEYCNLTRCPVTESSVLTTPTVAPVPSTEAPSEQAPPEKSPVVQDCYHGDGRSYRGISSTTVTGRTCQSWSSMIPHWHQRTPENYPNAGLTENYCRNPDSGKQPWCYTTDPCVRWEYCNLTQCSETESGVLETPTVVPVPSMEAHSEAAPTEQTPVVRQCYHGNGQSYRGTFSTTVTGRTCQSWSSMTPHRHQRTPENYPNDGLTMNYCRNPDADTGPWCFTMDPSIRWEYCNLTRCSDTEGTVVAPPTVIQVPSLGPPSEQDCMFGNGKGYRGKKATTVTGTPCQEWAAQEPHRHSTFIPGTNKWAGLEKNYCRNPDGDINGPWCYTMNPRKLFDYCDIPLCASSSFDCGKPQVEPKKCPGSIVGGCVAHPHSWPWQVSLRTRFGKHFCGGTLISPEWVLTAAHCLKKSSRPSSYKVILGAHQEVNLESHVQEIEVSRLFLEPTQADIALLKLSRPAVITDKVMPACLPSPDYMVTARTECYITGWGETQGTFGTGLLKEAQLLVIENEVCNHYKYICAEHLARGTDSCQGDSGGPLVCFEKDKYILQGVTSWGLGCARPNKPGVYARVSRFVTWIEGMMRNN

Row | SMILES | bioavailability [1] | Kd [2]
1 | O=C(O)[C@@H](Cc1cccc(CN(Cc2cccc(C[C@H](C(=O)O)[C@H]3CCNC3)c2)Cc2cccc(C[C@H](C(=O)O)[C@H]3CCNC3)c2)c1)[C@H]1CCNC1 [Comparative Example 1, reference compound] | 10.2% | 
2 | O=C(O)[C@@H](Cc1cccc(CN(Cc2cccc(C[C@H](C(=O)O)[C@H]3CCNC3)c2)C(=O)c2cccc(C[C@H](C(=O)O)[C@H]3CCNC3)c2)c1)[C@H]1CCNC1 [Example 5] | 16.8% | 10.9 nM
